Patent US20190315823A1, “SMALL CATIONIC ANTI-BIOFILM AND IDR PEPTIDES” (priority 2013, published 2019)
Ends that are not written are not given here.

System: LPS-stimulated human peripheral blood mononuclear cells (IL1-β)
Assay: not given
Assay type: cell-based
Conditions: Table 12; cells stimulated with 10 ng/ml LPS

Going from “1018-R1: single substituted 1018 peptide (RRLIVAVRIWRR-NH2) [Peptide 1018-R1]” to “1002-G12: single substituted 1002 peptide (VQRWLIVWRIRG-NH2) [Peptide 1002-G12]”, the “Fold change in IL1β relative to no peptide LPS stimulated cells” value falls from 0.13 to 0.10.

Going from “1018-W9: single substituted 1018 peptide (VRLIVAVRWWRR-NH2) [Peptide 1018-W9]” to “HH2-Q8: single substituted HH2 peptide (VQLRIRVQVIRA-NH2)”, the “Fold change in IL1β relative to no peptide LPS stimulated cells” value rises from 0.10 to 0.97.

First: 1002-K3: single substituted 1002 peptide (VQKWLIVWRIRK-NH2) [Peptide 1002-K3]
Second: 1002-V11: single substituted 1002 peptide (VQRWLIVWRIVK-NH2) [Peptide 1002-V11]
The “Fold change in IL1β relative to no peptide LPS stimulated cells” value of the first is higher: 0.06 for the first, 0.05 for the second.

Going from “HH2-V11: single substituted HH2 peptide (VQLRIRVAVIVA-NH2)” to “HH2-R10: single substituted HH2 peptide (VQLRIRVAVRRA-NH2)”, the “Fold change in IL1β relative to no peptide LPS stimulated cells” value rises from 1.15 to 1.53.

Compared with “1002-Q7: single substituted 1002 peptide (VQRWLIQWRIRK-NH2) [Peptide 1002-Q7]”, “HH2-R7: single substituted HH2 peptide (VQLRIRRAVIRA-NH2)” is higher in “Fold change in IL1β relative to no peptide LPS stimulated cells” value: 0.06 for the first, 1.49 for the second.

First: HH2-Q11: single substituted HH2 peptide (VQLRIRVAVIQA-NH2)
Second: HH2-W11: single substituted HH2 peptide (VQLRIRVAVIWA-NH2)
The “Fold change in IL1β relative to no peptide LPS stimulated cells” value of the first is lower: 0.78 for the first, 1.04 for the second.

Compared with “HH2-V6: single substituted HH2 peptide (VQLRIVVAVIRA-NH2)”, “HH2-K2: single substituted HH2 peptide (VKLRIRVAVIRA-NH2)” is higher in “Fold change in IL1β relative to no peptide LPS stimulated cells” value: 0.53 for the first, 0.71 for the second.

In the case of “1018-W1: single substituted 1018 peptide (WRLIVAVRIWRR-NH2) [Peptide 1018-W1]”, the “Fold change in IL1β relative to no peptide LPS stimulated cells” value is reported as 0.16.

Same assay, conditions: Table 12; cells stimulated with 10 ng/ml LPS; LPS alone 1313 (HH2 derivatives), 1927 (1018 derivatives), 2455 (1002 and hybrid peptides) pg/ml

“1018-R1: single substituted 1018 peptide (RRLIVAVRIWRR-NH2) [Peptide 1018-R1]” and “1002-G12: single substituted 1002 peptide (VQRWLIVWRIRG-NH2) [Peptide 1002-G12]” are within 1.5-fold of each other in “IL1β Production” value: 176 pg/mL for the first, 240 pg/mL for the second.

First: 1018-W9: single substituted 1018 peptide (VRLIVAVRWWRR-NH2) [Peptide 1018-W9]
Second: HH2-Q8: single substituted HH2 peptide (VQLRIRVQVIRA-NH2)
The “IL1β Production” value of the first is 10-fold lower: 127 pg/mL for the first, 1279 pg/mL for the second.

“1002-K3: single substituted 1002 peptide (VQKWLIVWRIRK-NH2) [Peptide 1002-K3]” and “1002-V11: single substituted 1002 peptide (VQRWLIVWRIVK-NH2) [Peptide 1002-V11]” are within 1.5-fold of each other in “IL1β Production” value: 137 pg/mL for the first, 127 pg/mL for the second.

“HH2-V11: single substituted HH2 peptide (VQLRIRVAVIVA-NH2)” and “HH2-R10: single substituted HH2 peptide (VQLRIRVAVRRA-NH2)” are within 1.5-fold of each other in “IL1β Production” value: 1515 pg/mL for the first, 2003 pg/mL for the second.

Compared with “1002-Q7: single substituted 1002 peptide (VQRWLIQWRIRK-NH2) [Peptide 1002-Q7]”, “HH2-R7: single substituted HH2 peptide (VQLRIRRAVIRA-NH2)” is 14-fold higher in “IL1β Production” value: 138 pg/mL for the first, 1959 pg/mL for the second.

“HH2-Q11: single substituted HH2 peptide (VQLRIRVAVIQA-NH2)” and “HH2-W11: single substituted HH2 peptide (VQLRIRVAVIWA-NH2)” are within 1.5-fold of each other in “IL1β Production” value: 1020 pg/mL for the first, 1362 pg/mL for the second.

“HH2-V6: single substituted HH2 peptide (VQLRIVVAVIRA-NH2)” and “HH2-K2: single substituted HH2 peptide (VKLRIRVAVIRA-NH2)” are within 1.5-fold of each other in “IL1β Production” value: 694 pg/mL for the first, 937 pg/mL for the second.

“1018-W1: single substituted 1018 peptide (WRLIVAVRIWRR-NH2) [Peptide 1018-W1]” was tested, and the “IL1β Production” value was 204 pg/mL.

System: methicillin resistant Staphylococcus aureus (MRSA) biofilm
Assay: not given
Conditions: approximate peptide concentration […] (around 3 μg/ml); compared to untreated samples
In short: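 Peptide was present from inoculation onward, with bacteria seeded at 1/100 from overnight cultures into BM2 biofilm medium or Luria Broth. Crystal violet staining of surface-attached cells (A595) quantified biofilm reduction at 22–46 h. K. pneumoniae was additionally screened in a real-time Bioflux flow device for some peptides.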

Going from “1018-R1: single substituted 1018 peptide (RRLIVAVRIWRR-NH2) [Peptide 1018-R1]” to “1002-G12: single substituted 1002 peptide (VQRWLIVWRIRG-NH2) [Peptide 1002-G12]”, the “% Biofilm inhibition” value rises from 46% to 50%.

Going from “1018-W9: single substituted 1018 peptide (VRLIVAVRWWRR-NH2) [Peptide 1018-W9]” to “HH2-Q8: single substituted HH2 peptide (VQLRIRVQVIRA-NH2)”, the “% Biofilm inhibition” value falls from 69% to 65%.

Going from “1002-K3: single substituted 1002 peptide (VQKWLIVWRIRK-NH2) [Peptide 1002-K3]” to “1002-V11: single substituted 1002 peptide (VQRWLIVWRIVK-NH2) [Peptide 1002-V11]”, the “% Biofilm inhibition” value rises from 61% to 68%.

First: HH2-V11: single substituted HH2 peptide (VQLRIRVAVIVA-NH2)
Second: HH2-R10: single substituted HH2 peptide (VQLRIRVAVRRA-NH2)
The “% Biofilm inhibition” value of the first is lower: 51% for the first, 73% for the second.

Compared with “1002-Q7: single substituted 1002 peptide (VQRWLIQWRIRK-NH2) [Peptide 1002-Q7]”, “HH2-R7: single substituted HH2 peptide (VQLRIRRAVIRA-NH2)” is lower in “% Biofilm inhibition” value: 45% for the first, 3% for the second.

Compared with “HH2-Q11: single substituted HH2 peptide (VQLRIRVAVIQA-NH2)”, “HH2-W11: single substituted HH2 peptide (VQLRIRVAVIWA-NH2)” is lower in “% Biofilm inhibition” value: 63% for the first, 45% for the second.

Going from “HH2-V6: single substituted HH2 peptide (VQLRIVVAVIRA-NH2)” to “HH2-K2: single substituted HH2 peptide (VKLRIRVAVIRA-NH2)”, the “% Biofilm inhibition” value rises from 39% to 69%.

In the case of “1018-W1: single substituted 1018 peptide (WRLIVAVRIWRR-NH2) [Peptide 1018-W1]”, the “% Biofilm inhibition” value is reported as 68%.

System: human peripheral blood mononuclear cells (MCP-1)
Assay: SPOT-synthesized derivative screen: production of chemokine MCP-1
Assay type: cell-based
Conditions: Table 12; No LPS; human PBMC, peptide at ~18-24 μM
In short: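 MCP-1 was quantified by capture ELISA in cleared culture supernatants of treated human peripheral blood mononuclear cells. Cells came from heparinized volunteer blood via Ficoll gradient and were seeded at 0.75 to 1×10^6 cells/ml (37 °C, 5% CO2).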

Compared with “1018-R1: single substituted 1018 peptide (RRLIVAVRIWRR-NH2) [Peptide 1018-R1]”, “1002-G12: single substituted 1002 peptide (VQRWLIVWRIRG-NH2) [Peptide 1002-G12]” is lower in “Fold increase in MCP1 cf. untreated cells” value (from here on “Fold increase”): 5.9 for the first, 0.9 for the second.

Going from “1018-W9: single substituted 1018 peptide (VRLIVAVRWWRR-NH2) [Peptide 1018-W9]” to “HH2-Q8: single substituted HH2 peptide (VQLRIRVQVIRA-NH2)”, the “Fold increase” value rises from 2.5 to 9.4.

First: 1002-K3: single substituted 1002 peptide (VQKWLIVWRIRK-NH2) [Peptide 1002-K3]
Second: 1002-V11: single substituted 1002 peptide (VQRWLIVWRIVK-NH2) [Peptide 1002-V11]
The “Fold increase” value of the first is higher: 3.4 for the first, 3.2 for the second.

Going from “HH2-V11: single substituted HH2 peptide (VQLRIRVAVIVA-NH2)” to “HH2-R10: single substituted HH2 peptide (VQLRIRVAVRRA-NH2)”, the “Fold increase” value falls from 5.6 to 5.1.

Compared with “1002-Q7: single substituted 1002 peptide (VQRWLIQWRIRK-NH2) [Peptide 1002-Q7]”, “HH2-R7: single substituted HH2 peptide (VQLRIRRAVIRA-NH2)” is higher in “Fold increase” value: 0.9 for the first, 1.6 for the second.

Going from “HH2-Q11: single substituted HH2 peptide (VQLRIRVAVIQA-NH2)” to “HH2-W11: single substituted HH2 peptide (VQLRIRVAVIWA-NH2)”, the “Fold increase” value falls from 17 to 15.

Going from “HH2-V6: single substituted HH2 peptide (VQLRIVVAVIRA-NH2)” to “HH2-K2: single substituted HH2 peptide (VKLRIRVAVIRA-NH2)”, the “Fold increase” value falls from 40 to 7.9.

For “1018-W1: single substituted 1018 peptide (WRLIVAVRIWRR-NH2) [Peptide 1018-W1]”, the “Fold increase” value was 5.0.

Same assay, conditions: Table 12; No LPS; human PBMC, peptide at ~18-24 μM; background subtracted 139 (HH2 derivatives), 170 (1018 derivatives), 242 (1002 and hybrid peptides) pg/ml

First: 1018-R1: single substituted 1018 peptide (RRLIVAVRIWRR-NH2) [Peptide 1018-R1]
Second: 1002-G12: single substituted 1002 peptide (VQRWLIVWRIRG-NH2) [Peptide 1002-G12]
The “MCP1” value of the first is higher: 832 pg/mL for the first, -36.2 pg/mL for the second.

Compared with “1018-W9: single substituted 1018 peptide (VRLIVAVRWWRR-NH2) [Peptide 1018-W9]”, “HH2-Q8: single substituted HH2 peptide (VQLRIRVQVIRA-NH2)” is 5.8-fold higher in “MCP1” value: 247 pg/mL for the first, 1421 pg/mL for the second.

“1002-K3: single substituted 1002 peptide (VQKWLIVWRIRK-NH2) [Peptide 1002-K3]” and “1002-V11: single substituted 1002 peptide (VQRWLIVWRIVK-NH2) [Peptide 1002-V11]” are within 1.5-fold of each other in “MCP1” value: 576.2 pg/mL for the first, 541.2 pg/mL for the second.

“HH2-V11: single substituted HH2 peptide (VQLRIRVAVIVA-NH2)” and “HH2-R10: single substituted HH2 peptide (VQLRIRVAVRRA-NH2)” are within 1.5-fold of each other in “MCP1” value: 788 pg/mL for the first, 701 pg/mL for the second.

Compared with “1002-Q7: single substituted 1002 peptide (VQRWLIQWRIRK-NH2) [Peptide 1002-Q7]”, “HH2-R7: single substituted HH2 peptide (VQLRIRRAVIRA-NH2)” is higher in “MCP1” value: -36.2 pg/mL for the first, 98 pg/mL for the second.

“HH2-Q11: single substituted HH2 peptide (VQLRIRVAVIQA-NH2)” and “HH2-W11: single substituted HH2 peptide (VQLRIRVAVIWA-NH2)” are within 1.5-fold of each other in “MCP1” value: 2759 pg/mL for the first, 2309 pg/mL for the second.

First: HH2-V6: single substituted HH2 peptide (VQLRIVVAVIRA-NH2)
Second: HH2-K2: single substituted HH2 peptide (VKLRIRVAVIRA-NH2)
The “MCP1” value of the first is 5.7-fold higher: 6624 pg/mL for the first, 1168 pg/mL for the second.

For “1018-W1: single substituted 1018 peptide (WRLIVAVRIWRR-NH2) [Peptide 1018-W1]”, the “MCP1” value was 684 pg/mL.
